Data taken from patent US20250019387A1 (Frontier Medicines Corporation, priority 0001, published 2025).
pIC50: −log10 of the molar value.

biological target: KRAS G12C and cRAF (Ras-binding domain) interaction (Homo sapiens (Human), UniProt P01116, C118S/C51S/C80L/G12C); experiment: Inhibition of KRAS G12C and cRAF binding (AlphaScreen); conditions: GMPPNP-loaded KRAS G12C, 19-20 hours incubation with compound; read-out: IC50 (Inhibition of KRAS G12C and cRAF Binding)
In short: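 Compounds (DMSO) preincubated 19-20 h at room temperature, then RBD with streptavidin donor and glutathione acceptor beads added in 25 mM Hepes pH 7.4, 150 mM NaCl, 5 mM MgCl2, 0.01% Triton X-100, 2% DMSO for 60-90 min. Emission 570 nm (excitation 680 nm); IC50 by 4-parameter fit. Counter-screen used biotin-AviTag-GST instead of RBD.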

Sequence of KRAS G12C and cRAF (Ras-binding domain) interaction (P01116 other isoform, or with tags, fused parts or gaps G12C/C51S/C80L/C118S): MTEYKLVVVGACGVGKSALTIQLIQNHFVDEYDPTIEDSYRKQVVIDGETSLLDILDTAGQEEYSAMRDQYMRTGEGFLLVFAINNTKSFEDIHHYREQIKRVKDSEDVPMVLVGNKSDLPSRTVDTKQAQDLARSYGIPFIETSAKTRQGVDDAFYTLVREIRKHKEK

Compound	pIC50
C#Cc1c(F)ccc2cccc(-c3ncc4c(N(C)[C@@H]5CCN(C(=O)/C=C/[C@H]6CCN6C)C5)nc(OC[C@@]56CCCN5C[C@H](F)C6)nc4c3F)c12 [Example 200, (E)-1-((R)-3-((7-(8-ethynyl-7-fluoronaphthalen-1-yl)-8-fluoro-2-(((2R,7aS)-2-fluorohexahydro-1H-pyrrolizin-7a-yl)methoxy)pyrido[4,3-d]pyrimidin-4-yl)(methyl)amino)pyrrolidin-1-yl)-3-((R)-1-methylazetidin-2-yl)prop-2-en-1-one]	> 8.00
CN1CC(/C=C/C(=O)N2CC[C@@H](N(C)c3nc(OC[C@@]45CCCN4C[C@H](F)C5)nc4c(F)c(-c5cccc6ccc(F)c(Cl)c56)ncc34)C2)C1 [Example 127, (E)-1-((R)-3-((7-(8-chloro-7-fluoronaphthalen-1-yl)-8-fluoro-2-(((2R,7aS)-2-fluorotetrahydro-1H-pyrrolizin-7a(5H)-yl)methoxy)pyrido[4,3-d]pyrimidin-4-yl)(methyl)amino)pyrrolidin-1-yl)-3-(1-methylazetidin-3-yl)prop-2-en-1-one]	6.30 to 7.00
Cc1nsc(/C=C/C(=O)N2CC(CN(C)c3nc(OC[C@@]45CCCN4C[C@H](F)C5)nc4c(F)c(-c5cccc6cccc(Cl)c56)ncc34)C2)n1 [Example 74, (E)-1-(3-(((7-(8-chloronaphthalen-1-yl)-8-fluoro-2-(((2R,7aS)-2-fluorotetrahydro-1H-pyrrolizin-7a(5H)-yl)methoxy)pyrido[4,3-d]pyrimidin-4-yl)(methyl)amino)methyl)azetidin-1-yl)-3-(3-methyl-1,2,4-thiadiazol-5-yl)prop-2-en-1-one]	6.30 to 7.00
Cc1nsc(/C=C/C(=O)N2C[C@H](F)[C@@H](N(C)c3nc(OC[C@@]45CCCN4C[C@H](F)C5)nc4c(F)c(-c5cccc6cccc(Cl)c56)ncc34)C2)n1 [Example 215, (E)-1-((3S,4S)-3-((7-(8-chloronaphthalen-1-yl)-8-fluoro-2-(((2R,7aS)-2-fluorohexahydro-1H-pyrrolizin-7a-yl)methoxy)pyrido[4,3-d]pyrimidin-4-yl)(methyl)amino)-4-fluoropyrrolidin-1-yl)-3-(3-methyl-1,2,4-thiadiazol-5-yl)prop-2-en-1-one]	6.30 to 7.00
C=CC(=O)N1CC[C@@H](N(C)c2nc(OC[C@@]34CCCN3C[C@H](F)C4)nc3c(F)c(-c4cccc5ccc(F)c(C)c45)ncc23)C1 [Example 195, 1-((R)-3-((8-fluoro-7-(7-fluoro-8-methylnaphthalen-1-yl)-2-(((2R,7aS)-2-fluorotetrahydro-1H-pyrrolizin-7a(5H)-yl)methoxy)pyrido[4,3-d]pyrimidin-4-yl)(methyl)amino)pyrrolidin-1-yl)prop-2-en-1-one]	7.00 to 8.00
C=CS(=O)(=O)CCN(C)c1nc(OC[C@@H]2CCCN2C)nc2c1CCN(c1cccc3cccc(Cl)c13)C2 [Example 47, (S)-7-(8-chloronaphthalen-1-yl)-N-methyl-2-((1-methylpyrrolidin-2-yl)methoxy)-N-(2-(vinylsulfonyl)ethyl)-5,6,7,8-tetrahydropyrido[3,4-d]pyrimidin-4-amine]	7.00 to 8.00
Cc1noc(/C=C/C(=O)N2CC(CN(C)c3nc(OC[C@@]45CCCN4C[C@H](F)C5)nc4c(F)c(-c5cc(O)cc6ccccc56)ncc34)C2)n1 [Example 86, (E)-1-(3-(((8-fluoro-2-(((2R,7aS)-2-fluorotetrahydro-1H-pyrrolizin-7a(5H)-yl)methoxy)-7-(3-hydroxynaphthalen-1-yl)pyrido[4,3-d]pyrimidin-4-yl)(methyl)amino)methyl)azetidin-1-yl)-3-(3-methyl-1,2,4-oxadiazol-5-yl)prop-2-en-1-one]	> 8.00
CN(CCS(=O)(=O)/C=C/CN1CC(F)C1)c1nc(OC[C@@H]2CCCN2C)nc2c1CCN(c1cccc3cccc(Cl)c13)C2 [Example 53, 7-(8-chloro-1-naphthyl)-N-[2-[(E)-3-(3-fluoroazetidin-1-yl)prop-1-enyl]sulfonylethyl]-N-methyl-2-[[(2S)-1-methylpyrrolidin-2-yl]methoxy]-6,8-dihydro-5H-pyrido[3,4-d]pyrimidin-4-amine]	6.30 to 7.00
C=CC(=O)N1CC[C@@H](N(C)c2nc(OC[C@@]34CCCN3C[C@H](F)C4)nc3c(F)c(-c4cccc5cc(F)c(F)cc45)ncc23)C1 [Example 266, 1-((R)-3-((7-(6,7-difluoronaphthalen-1-yl)-8-fluoro-2-(((2R,7aS)-2-fluorotetrahydro-1H-pyrrolizin-7a(5H)-yl)methoxy)pyrido[4,3-d]pyrimidin-4-yl)(methyl)amino)pyrrolidin-1-yl)prop-2-en-1-one]	6.30 to 7.00
CN(c1nc(OC[C@@]23CCCN2C[C@H](F)C3)nc2c(F)c(-c3cccc4cccc(Cl)c34)ncc12)[C@@H]1CCN(C(=O)/C=C/[C@H]2CCN2CCO)C1 [Example 233, (E)-1-((R)-3-((7-(8-chloronaphthalen-1-yl)-8-fluoro-2-(((2R,7aS)-2-fluorotetrahydro-1H-pyrrolizin-7a(5H)-yl)methoxy)pyrido[4,3-d]pyrimidin-4-yl)(methyl)amino)pyrrolidin-1-yl)-3-((R)-1-(2-hydroxyethyl)azetidin-2-yl)prop-2-en-1-one]	7.00 to 8.00

same assay, conditions: additional exemplary compounds; KRAS G12C and cRAF binding; read-out: RAF1 RBD IC50

Compound	pIC50
C=CC(=O)N1CC[C@@H](N(C)c2nc(OC[C@]34CCCN3C[C@H](F)C4)nc3c2CCN(c2cccc4cccc(Cl)c24)C3)C1	< 6.30
N#CN1C2CCC1CN(c1nc(OC[C@@]34CCCN3C[C@H](F)C4)nc3c1CCN(c1cccc4ccc(F)c(Cl)c14)C3)C2	< 6.30
CN(c1nc(OC[C@@]23CCCN2C[C@H](F)C3)nc2c1CCN(c1cccc3cccc(Cl)c13)C2)[C@@H]1CCN(C(=O)/C=C/c2ncn(C)n2)C1	< 6.30
C=CC(=O)N1C[C@H](N(C)c2nc(OCC34CCCN3CCC4)nc3c(F)c(-c4cccc5cccc(Cl)c45)ncc23)C[C@H]1C	< 6.30
CN(C)C/C=C/C(=O)N1CC[C@@H](N(C)c2nc(OCC34CCCN3CCC4)nc3c(F)c(-c4cccc5cccc(Cl)c45)ncc23)C1	7.00 to 8.00
C/C=C/C(=O)CCN(C)c1nc(OC[C@@H]2CCCN2C)nc2c1CCN(c1cccc3ccccc13)C2	< 6.30
CN(C)C(=O)/C=C/C(=O)N1CC(CN(C)c2nc(OCC34CCCN3CCC4)nc3c2CCN(c2cccc4cccc(Cl)c24)C3)C1	< 6.30
CC(C)c1noc(/C=C/C(=O)N2C3CC2CN(c2nc(OC[C@@]45CCCN4C[C@H](F)C5)nc4c(F)c(-c5cccc6cccc(Cl)c56)ncc24)C3)n1	< 6.30
C=CC(=O)N1CC(N(C)c2nc(OC[C@@]34CCCN3C[C@H](F)C4)nc3c2CCN(c2cccc4cccc(Cl)c24)C3)C1	< 6.30
C=CC(=O)N1CC(CN(C)c2nc(OC[C@@]34CCCN3C[C@@H](F)C4)nc3c2CCN(c2cccc4cccc(Cl)c24)C3)C1	< 6.30
O=C(/C=C/CN1CCOCC1)N1[C@@H]2CC[C@H]1CN(c1nc(OC[C@@]34CCCN3C[C@H](F)C4)nc3c(F)c(-c4cccc5cccc(Cl)c45)ncc13)C2	< 6.30
C=CC(=O)N1CCC(N(c2nc(OC[C@@]34CCCN3C[C@H](F)C4)nc3c(F)c(-c4cccc5cccc(Cl)c45)ncc23)C2CC2)C1 (stereo partly shown)	< 6.30
